Reference: PubChem BioAssay AID1963851 (Molecular Pharmacology Branch, DTP, NCI, 2024)

System: 188146-221-R-J1-PDC complex spheroid viability
Assay: Anticancer human tumor 188146-221-R-J1-PDC patient-derived colon adenocarcinoma cell line growth inhibition [POLQ]
Conditions: for IC50: curve of first compound; for viability, T/C: stronger effect = lower value
Protocol: Multicellular complex tumor spheroid response to Polymerase (POL) inhibitors (novobiocin, ART-558, RP6685) in combination with a variety of drugs and investigational agents in selected tumor cell lines
The POL inhibitors (novobiocin, ART-558, and RP6685) were evaluated both individually and in combination with standard of care and investigational anticancer small molecules within a complex spheroid model of solid tumors. . Complex spheroids include a stromal component modeled by human endothelial cells (HUVEC) and fibroblasts modeled by human mesenchymal stem cells (MSCs). The concentration ranges selected for each drug and investigational agent were based upon clinically achievable concentrations if the clinical Cmax of the agent was known.
Compounds. The drugs and investigational agents: novobiocin (NSC847541), ART-558 (NSC835418), RP-6685 (NSC848927), peposertib (NSC802822), ceralasertib (NSC780249), elimusertib (NSC800525), camonsertib (NSC841442), AZD-1390 (NSC803789), olaparib (NSC753686), talazoparib (NSC767125), rucaparib (NSC756644), sotorasib (NSC818433), MRTX-1133 (NSC836407), SN-38 (NSC673596), topotecan (NSC609699), epotoside (NSC141540), doxorubicin (NSC123127), gemcitabine (NSC613327), 5-fluorouracil (NSC19893), paclitaxel (NSC125973), vemurafenib (NSC761431), MSA-2 (NSC828583), SN-011 (NSC837082), adavosertib (NSC754352), prexasertib (NSC758257), carboplatin (NSC241240) and oxaliplatin (NSC266046), were obtained from the National Cancer Institute (NCI) Developmental Therapeutics Program Chemical Repository (21). The FDA-approved anticancer drug set is available from the Developmental Therapeutics Program at https://dtp.cancer.gov/organization/dscb/obtaining/. […] The stock solutions were prepared in dimethyl sulfoxide (DMSO, Sigma-Aldrich, St. Louis, MO, cat. D2650), except for the platinum compounds which were prepared in saline (Quality Biological, Gaithersburg, MD, cat. 114-055-101), at 800-fold the tested concentration and stored at -70 degrees C prior to their use. All drugs and investigational agents were tested over a range starting from a high concentration at or near the clinical Cmax and decreasing in half-log increments. If the clinical Cmax for an agent had not been determined, the highest concentration tested was 10 microM, except for SN-38, which was tested at a high concentration of 1 microM.
Cell Culture. All cells were maintained in an incubator at 37 degrees C and 5% CO2 with 95% humidity. The PDC lines were cultured according to standard operating procedures established by the NCI PDMR (https://pdmr.cancer.gov). Table 3 of the manuscript, lists the cell lines along with the number of the three cell types plated to form the mct-spheroids and media for tumor cell growth. After thawing, all PDC lines, except 997537-175-T-J1-PDC and 415267-285-R-J2-PDC, were cultured in Matrigel-coated flasks prepared with a working solution of 1X Ham's F-12 nutrient mix, without supplementation (Thermo Fisher Scientific, cat. 11765054), 100 U/mL penicillin-streptomycin (Thermo Fisher Scientific, cat. 15140122), and 2.5% Matrigel (Corning Inc., Corning, NY, cat. 354248) for the first three passages. The two PDC lines 997537-175-T-J1-PDC and 415267-285-R-J2-PDC were cultured on uncoated flasks. The 857933-349-R-J2-PDC line was cultured in 6C/Colon 1B media containing advanced DMEM/F-12 (Thermo Fisher Scientific, cat. 12634028), 10 mM HEPES (Thermo Fisher Scientific, cat. 15630080), 1X GlutaMAX supplement (Thermo Fisher Scientific, cat. 35050061), 0.1 mg/mL primocin (InvivoGen, San Diego, CA, cat. ant-pm-2), 10% defined fetal bovine serum, heat inactivated (HyClone Laboratories Inc., Logan, UT, cat. SH30070.03HI), 50% L-WRN conditioned media (ATCC, cat. CRL-3276), 1.25 mM N-Acetyl-L-cysteine (Sigma-Aldrich, cat. A9165), 10 mM nicotinamide (Sigma-Aldrich, cat. N0636), 1X B-27 supplement (Thermo Fisher Scientific, cat. 17504044), 1X N-2 supplement (Thermo Fisher Scientific, cat. […]
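Further: spheroids exposed to compounds for seven days.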
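Wherever viability, T/C is given: 100% = DMSO vehicle control viability.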

SMILES: COc1cc2cc(C(=O)CCC(=O)O)sc2cc1OC + Cc1cccc(N(C)C(=O)C2C(O)CCN2c2nc(C)cc(C(F)(F)F)c2C#N)c1
- IC50 (second compound 0.0316 µM): > 10 µM
- IC50 (second compound 0.1 µM): > 10 µM
- IC50 (second compound 0.316 µM): > 10 µM
- IC50 (second compound 1 µM): > 10 µM
- IC50 (second compound 3.16 µM): > 10 µM
- IC50 (second compound 10 µM): > 10 µM
- viability, T/C (second compound 0.0316 µM, first compound 0.0316 µM): 95.5%
- viability, T/C (second compound 0.0316 µM, first compound 0.1 µM): 109%
- viability, T/C (second compound 0.0316 µM, first compound 0.316 µM): 94.2%
- viability, T/C (second compound 0.0316 µM, first compound 1 µM): 91.3%
- viability, T/C (second compound 0.0316 µM, first compound 3.16 µM): 103%
- viability, T/C (second compound 0.0316 µM, first compound 10 µM): 93.5%
- viability, T/C (second compound 0.1 µM, first compound 0.0316 µM): 102%
- viability, T/C (second compound 0.1 µM, first compound 0.1 µM): 100%
- viability, T/C (second compound 0.1 µM, first compound 0.316 µM): 109%
- viability, T/C (second compound 0.1 µM, first compound 1 µM): 97.8%
- viability, T/C (second compound 0.1 µM, first compound 3.16 µM): 97.5%
- viability, T/C (second compound 0.1 µM, first compound 10 µM): 105%
- viability, T/C (second compound 0.316 µM, first compound 0.0316 µM): 95.9%
- viability, T/C (second compound 0.316 µM, first compound 0.1 µM): 98.7%
- viability, T/C (second compound 0.316 µM, first compound 0.316 µM): 93.2%
- viability, T/C (second compound 0.316 µM, first compound 1 µM): 94%
- viability, T/C (second compound 0.316 µM, first compound 3.16 µM): 96.1%
- viability, T/C (second compound 0.316 µM, first compound 10 µM): 99%
- viability, T/C (second compound 1 µM, first compound 0.0316 µM): 94.1%
- viability, T/C (second compound 1 µM, first compound 0.1 µM): 80.5%
- viability, T/C (second compound 1 µM, first compound 0.316 µM): 93.6%
- viability, T/C (second compound 1 µM, first compound 1 µM): 96.6%
- viability, T/C (second compound 1 µM, first compound 3.16 µM): 112%
- viability, T/C (second compound 1 µM, first compound 10 µM): 92.7%
- viability, T/C (second compound 3.16 µM, first compound 0.0316 µM): 100%
- viability, T/C (second compound 3.16 µM, first compound 0.1 µM): 107%
- viability, T/C (second compound 3.16 µM, first compound 0.316 µM): 84.8%
- viability, T/C (second compound 3.16 µM, first compound 1 µM): 88.6%
- viability, T/C (second compound 3.16 µM, first compound 3.16 µM): 92.5%
- viability, T/C (second compound 3.16 µM, first compound 10 µM): 86.9%
- viability, T/C (second compound 10 µM, first compound 0.0316 µM): 101%
- viability, T/C (second compound 10 µM, first compound 0.1 µM): 96.2%
- viability, T/C (second compound 10 µM, first compound 0.316 µM): 92.3%
- viability, T/C (second compound 10 µM, first compound 1 µM): 88.7%
- viability, T/C (second compound 10 µM, first compound 3.16 µM): 88.8%
- viability, T/C (second compound 10 µM, first compound 10 µM): 103%
